Data as given in PubChem BioAssay (NCI).
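1) Cells in 96-well plates. 2) Compound, 48 h, 5 concentrations. 3) Linear interpolation between surrounding doses. 4) Unreached endpoint = highest concentration. GI50 = concentration required for 50% inhibition of growth. Definition used: TGI = concentration required for complete inhibition of growth.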

Tests used:
Assay in all cases: inhibition of tumour cell growth, NCI panel, 48 h
OVCAR-4 ovarian = tested on: OVCAR-4 ovarian
SK-MEL-2 melanoma = tested on: SK-MEL-2 melanoma
OVCAR-8 ovarian = tested on: OVCAR-8 ovarian
RPMI-8226 leukemia = tested on: RPMI-8226 leukemia
HCT-15 colon = tested on: HCT-15 colon
KM12 colon = tested on: KM12 colon
U251 CNS = tested on: U251 CNS
RXF 393 renal = tested on: RXF 393 renal
MALME-3M melanoma = tested on: MALME-3M melanoma
A549 NSCLC = tested on: A549 NSCLC

Row | Structure (SMILES) | TGI (OVCAR-4 ovarian) [µM] | TGI (SK-MEL-2 melanoma) [µM] | TGI (OVCAR-8 ovarian) [µM] | TGI (RPMI-8226 leukemia) [µM] | TGI (HCT-15 colon) [µM] | TGI (KM12 colon) [µM] | TGI (U251 CNS) [µM] | TGI (RXF 393 renal) [µM] | TGI (MALME-3M melanoma) [µM] | TGI (A549 NSCLC) [µM] | GI50 (OVCAR-4 ovarian) [µM] | GI50 (SK-MEL-2 melanoma) [µM] | GI50 (OVCAR-8 ovarian) [µM] | GI50 (RPMI-8226 leukemia) [µM] | GI50 (HCT-15 colon) [µM] | GI50 (KM12 colon) [µM] | GI50 (U251 CNS) [µM] | GI50 (RXF 393 renal) [µM] | GI50 (MALME-3M melanoma) [µM] | GI50 (A549 NSCLC) [µM]
1 | CC(C)(O)CO/N=C1\C(c2c(O)[nH]c3ccccc23)=Nc2ccccc21 | 21.9 | 3.2 | > 44.4 | > 31.6 | 30.7 | 4.71 | > 68.4 | 2.48 | > 60.6 | 11.1 | – | – | – | – | – | – | – | – | – | –
2 | c1ccc(CCN2CCOCC2)nc1 | > 100 | > 100 | > 100 | > 100 | > 100 | > 100 | > 100 | > 100 | > 100 | > 100 | – | – | – | – | – | – | – | – | – | –
3 | c1ccc2sc(C3(N4CCC5(CC4)OCCO5)CCCCC3)cc2c1 | > 100 | – | > 100 | > 100 | > 100 | > 100 | – | > 100 | > 100 | > 100 | – | – | – | – | – | – | – | – | – | –
4 | NC(=O)Nc1ccc(C(=O)NCCCNC(=O)c2ccc(NC(N)=O)cc2)cc1 | > 100 | > 100 | > 100 | > 100 | > 100 | > 100 | > 100 | > 100 | > 100 | > 100 | – | – | – | – | – | – | – | – | – | –
5 | CCCC1=C(C(=O)OCC)C(c2ccccc2OC)C(C#N)=C(N)O1 (stereo not drawn) | > 100 | > 100 | > 100 | 32.2 | > 100 | > 100 | > 100 | > 100 | > 100 | > 100 | 65.4 | > 100 | 43.8 | 13.3 | 50.3 | 21.1 | 44.7 | 46.5 | 27.8 | > 100
6 | COc1ccccc1/C=C/c1c(N)ncnc1Nc1cccc(Cl)c1 | 34.4 | 36.5 | > 100 | 31.2 | 52.5 | > 100 | 34.4 | 38.4 | 59.7 | 41.6 | – | – | – | – | – | – | – | – | – | –
7 | CN=C(N)/N=C(\N)Nc1cc2ccccc2c2ccccc12 | 33.6 | 32.3 | 33.8 | 43.3 | 33.4 | 34.6 | 28.5 | 31.9 | 29.3 | 30.8 | – | – | – | – | – | – | – | – | – | –
8 | O=C1/C(=C/c2ccc(Cl)cc2)N=C(c2ccccc2)N1c1nc2c(Cl)cc(Cl)cc2s1 | > 100 | 55.5 | > 100 | > 100 | > 100 | > 100 | 50.9 | 62 | – | 68.7 | – | – | – | – | – | – | – | – | – | –
9 | COc1c(O)c(O)c2c(c1O)C(=O)c1cc(C)cc(O)c1C2=O | > 89.1 | > 100 | > 83.3 | > 100 | > 100 | > 100 | > 100 | > 100 | 83.5 | > 100 | – | – | – | – | – | – | – | – | – | –
10 | CCOC(=O)C(=O)Nc1c(CC)cccc1C(C)CC (stereo not drawn) | > 100 | > 100 | > 100 | > 100 | > 100 | > 100 | > 100 | > 100 | > 100 | > 100 | – | – | – | – | – | – | – | – | – | –
11 | Nc1cccc2c1C1=NNC(=O)CC1C2 (stereo not drawn) | > 100 | > 100 | > 100 | > 100 | > 100 | > 100 | > 100 | > 100 | > 100 | > 100 | – | – | – | – | – | – | – | – | – | –
12 | O=C1C(c2c(O)[nH]c3ccccc23)=Nc2ccc(Br)cc21 | 69.5 | 93.9 | 49.4 | > 100 | > 100 | > 100 | 48 | 31 | > 100 | > 100 | – | – | – | – | – | – | – | – | – | –
13 | Cc1c(NC(=O)c2cc([N+](=O)[O-])cc([N+](=O)[O-])c2)c(=O)n(-c2ccccc2)n1C | > 100 | > 100 | > 100 | > 100 | > 100 | > 100 | > 100 | > 100 | > 100 | > 100 | – | – | – | – | – | – | – | – | – | –
14 | C[C@H](N[C@H]1CCC[C@]1(O)C#Cc1ccc2c(c1)OCO2)c1ccccc1 | > 25 | > 25 | > 25 | 16.9 | > 25 | > 25 | > 25 | > 25 | – | > 25 | – | – | – | – | – | – | – | – | – | –
15 | Cc1ccc2ccc3ccc(C)nc3c2n1 | > 100 | > 100 | > 100 | > 100 | > 100 | > 100 | > 100 | > 100 | > 100 | > 100 | – | – | – | – | – | – | – | – | – | –
16 | O=C1C(=c2cc3c(c4ccccc24)=NC24CCCCC2C(c2ccccc2)C=C(c2ccccc2)N34)C(=O)c2ccccc21 (stereo not drawn) | 68.3 | > 100 | > 100 | 53.8 | – | > 100 | > 100 | 49 | > 100 | > 100 | – | – | – | – | – | – | – | – | – | –
17 | O=C(Nc1sccc1S(=O)(=O)c1ccc(Cl)cc1)c1ccccc1 | > 100 | > 100 | > 100 | > 100 | > 100 | > 100 | > 100 | > 100 | > 100 | > 100 | – | – | – | – | – | – | – | – | – | –
18 | C/C=C1/CN2CCC34c5ccccc5N(C)C23C2CC1C4(C(=O)OC)C(O)O2 (stereo not drawn) | > 100 | > 100 | > 100 | > 100 | > 100 | > 100 | > 100 | – | – | > 100 | – | – | – | – | – | – | – | – | – | –
19 | Cc1c2cc[n+](C)cc2c(C)c2c1[nH]c1ccc(Cl)cc12 | 26.5 | 9.6 | 15.5 | > 95.6 | > 100 | 35.5 | 1.15 | 19.1 | 10.4 | 4.15 | – | – | – | – | – | – | – | – | – | –
20 | CSc1ccc(-c2cc(-c3nc4ccccc4[nH]3)nc(N)c2C#N)cc1 | – | 34.2 | > 100 | 77.2 | 61.9 | 71.2 | – | 24.7 | 44.5 | > 100 | – | – | – | – | – | – | – | – | – | –
21 | C=Cc1cc(OC)c2c(c1)c(=O)oc1c2cc(OC)c2c(O)ccc(C3OC(C)C(O)C(C)(O)C3O)c21 (stereo not drawn) | – | – | – | – | 0.467 | – | – | – | – | 0.376 | 0.00215 | 0.00134 | 0.000476 | 0.000432 | 0.000552 | – | 0.000187 | 0.000174 | 0.00153 | 0.000716
22 | C[C@@H](CO)C1=CC(C#C[Si](C)(C)C)N(C(=O)Oc2ccccc2)c2ccccc21 (stereo partly drawn) | 27 | 35.3 | 35 | 90.4 | 21.7 | 34.1 | 35.8 | 20 | – | 61.4 | – | – | – | – | – | – | – | – | – | –
23 | Cc1ccc([N+](=O)[O-])cc1S(=O)(=O)Nc1ccc(C2=NN(C(=O)c3ccccc3)C(c3cccs3)C2)cc1 (stereo not drawn) | > 100 | 39.5 | > 100 | > 100 | > 100 | > 100 | > 100 | 56.8 | 68.6 | > 100 | – | – | – | – | – | – | – | – | – | –
24 | CNS(=O)(=O)c1ccc2[nH]c(O)c(C3=Nc4ccccc4C3=O)c2c1 | – | > 100 | – | > 100 | > 100 | – | 39.8 | > 100 | > 100 | > 100 | – | – | – | – | – | – | – | – | – | –
25 | N#CCCOCN(CO)c1nc(N(CO)COCCC#N)nc(N(CO)COCCC#N)n1 | 64 | 38.6 | 34.7 | 56.1 | 37.3 | > 100 | > 100 | 38.4 | 46.9 | 58.3 | – | – | – | – | – | – | – | – | – | –
26 | COc1cc(NC(=O)CSc2nc3ccccc3c(=O)n2CCc2ccccc2)cc(OC)c1OC | – | 6.94 | > 100 | – | – | – | 5.2 | 3.69 | 5.9 | – | – | 2.32 | 2.7 | – | – | – | 2.1 | 1.57 | 2.16 | –
27 | O=C(NCCNc1nccc(-c2c(-c3cccc(O)c3)nc3sccn23)n1)Nc1cccc(C(F)(F)F)c1 | 14.2 | 6.07 | 11 | 5.46 | 24.1 | 6.98 | 23.6 | 5.1 | 7.3 | 8.44 | 3.97 | 2.8 | 3.56 | 2.52 | 4.26 | 2.78 | 4.95 | 2.41 | 2.09 | 2.98
28 | CC(=O)OC[C@@]1(C)[C@@H]2[C@@H]3[C@@]4(CO[C@]3(C)C(=O)[C@@]3(O)C[C@H](C)[C@H](OC(C)=O)[C@@H]3[C@H]4OC(C)=O)[C@H](OC(=O)c3ccccc3)C[C@@H]21 | > 100 | > 100 | > 100 | > 100 | > 100 | > 100 | > 100 | > 100 | > 100 | > 100 | – | – | – | – | – | – | – | – | – | –
